Experimental data published in US20250002470A1, “NITROGEN-CONTAINING COMPOUND, PREPARATION METHOD THEREFOR AND APPLICATION THEREOF” (ZHEJIANG AIXPLORER BIOTECH CO., LTD., priority 2021, published 2025).

Tests used:
hERG potassium channel = hERG potassium channel (Homo sapiens, UniProt Q12809); test: Whole-cell patch-clamp (QPatch) of hERG current in HEK293 cells stably expressing hERG; type: cell-based
Protocol: In this study, a whole-cell patch-clamp technique was used to study the inhibitory effect of compounds on hERG potassium channels and to evaluate the risk of ventricular repolarization toxicity.
The HEK293 cell line stably expressing the hERG potassium channel cells was purchased from Creacell, Inc. (Cat. No. A-0320).
The HEK293 cell line that can stably express the hERG potassium channel, was cultured in DMEM medium containing 10% fetal bovine serum and 0.8 mg/mL G418 at 37° C. and 5% carbon dioxide.
Before the test, the cells were separated with TrypLET Express, centrifuged after adding medium to terminate digestion, resuspended the cell count, adjusted the cell density to 2-3×10^6 cells/mL, and then lightly mixed the cells on a room temperature equilibration shaker for 15-20 min.
Electrophysiological assays were performed using a fully automated patch-clamp QPatch 48 X (Sophion) device. The prepared cells were placed on a centrifuge on the Qpatch bench, the cells were washed using multiple centrifugation/suspension methods, and the cell culture medium was replaced with extracellular fluid. Remove an MTP-96 plate and place it in the location of the MTP source. Remove the QPlate chip and subsequently place the QPlate at the Qplate source location. The robotic arm scans the MTP-96 board and the QPlate chip barcode and grabs it to the measuring station. Draw the intracellular and external fluid from the liquid pool and add them to the intracellular fluid pool, cell and test cell pool of the QPlate chip, respectively. At the measuring station, all measuring sites on the QPlate undergo initial quality control. The quality control process includes aspirating the cell suspension from the cell vessel of the centrifuge and positioning the cells to the chip wells via a pressure controller to establish a high-resistance seal and create a whole-cell recording pattern.
The voltage stimulation protocol for whole-cell patch-clamp recording of whole-cell hERG potassium currents is as follows: the cell membrane voltage clamps at −80 mV when a whole-cell closure is formed. The clamping voltage is depolarized from −80 mV to −50 mV for 0.5 s (as a leakage current detection), then steps to 30 mV for 2.5 s, and then quickly recovers to −50 mV for 4 s to excite the tail current of the hERG channel. The data were collected repeatedly every 10 s to observe the effect of the drug on the hERG tail current. −50 mV stimulation at 0.5 s was used as the leakage current detection. The test data is collected by Qpatch and stored in the connected service station.
First, the current after the effect of each drug concentration and the blank control current are normalized 0, and then the inhibition rate corresponding to each drug concentration is calculated.
Calculate the mean and standard error for each concentration and calculate the semi-inhibitory concentration for each compound using the following Formula:
Y=Bottom+(Top−Bottom)/(1+10^((LogIC50−X)*HillSlope)) The above Formula was used to fit the dose-dependent effect nonlinearly, where C represents the test substance concentration, IC50 is the semi-inhibitory concentration, and h represents the Hill coefficient. Curve fitting and IC50 calculations were performed using Graphpad software.

NLRP3 = target: T1, NLRP3 (Homo sapiens, UniProt Q96P20); test: IL-1β (interleukin-1β) secretion in IFN-γ-differentiated, LPS/ATP-stimulated THP-1 cells (half inhibition rate of NLRP3); type: cell-based; settings: IFN-γ 25 ng/mL, LPS 50 ng/mL, ATP 5 mM
T1 construct: endogenous in cells; host or cells: THP-1 cells (IFN-γ differentiated, LPS primed, ATP stimulated)
Protocol: Remove THP-1 cells from liquid nitrogen and place in a 37° C. water bath until ice melt. Add the cells to 5 mL of warm cell culture medium and centrifuge at 1,000 rpm for 5 min. Discard the supernatant and resuspend and culture in a new cell culture medium.
THP-1 cells are cultured in the culture medium and passaged every 2-3 days.
2.1.1 Add 100 μL of cell suspension per well to the cell plate and incubate the cell plate in a 37° C., 5% CO2 incubator for 24 hours.
2.2.1 Discard the supernatant of IFN-γ differentiation after differentiation treatment. Add 100 μL of serum-free medium containing LPS (final concentration of 50 ng/mL) to the cell plate. The cell plates were incubated in a 37° C., 5% CO2 incubator for 4 h.
Place the cell plate in an incubator at 37° C. and 5% CO2 for 1 hour.
2.2.3 Add 20 μL of 6×ATP per well according to the plate map (final concentration 5 mM) and incubate the cell plate in a 37° C., 5% CO2 incubator for 1 h. Collect the supernatant (60 μL) and store at −20° C.
The capture antibody mAb Mt175 is diluted to 2 μg/mL with PBS (1:250) and added to the cell plate at 15 μL per well. Keep the plate overnight at 4° C.
2.4.1 Discard the coated antibody and wash 4 times with PBST.
2.4.3 Discard the blocking buffer and wash 4 times with PBST.
2.4.4 Add 25 μL of 2.2.3 collected supernatant sample per well and incubate for 2 h at room temperature.
2.4.5 Discard the samples and wash 4 times with PBST.
2.4.6 Add mAb7P10-biotin (concentration 0.5 ug/mL) to blocking buffer, add 15 μL per well to the cell plate, and incubate for 1 hour at room temperature.
2.4.7 Discard the antibody and wash 4 times with PBST.
2.4.8 Streptavidin-HRP was diluted 1:1000 in blocking buffer, 15 μL per well was added to the cell plate, and incubated for 1 hour at room temperature.
2.4.9 Discard streptavidin-HRP and wash 4 times with PBST.
2.4.10 Add 25 μL of HRP substrate (Surmodics-TMBW-0100-01) per well and incubate the cell plate until a blue product appears.
2.4.11 Add 25 μL of stop solution (Surmodics-LSTP-0100-01) per well, and the blue product turns yellow.
2.4.12 Read the cell plate at 450 nm with a microplate reader.

[1] = In vivo pharmacokinetic evaluation in mice (IV and PO); settings: CD-1 mice; for AUC / clearance / half-life / Vd / Cmax: mouse, plasma; for Vd: read-out: Vss
Protocol: CD-1 mice, after fasting overnight (free drinking), are divided into tail vein (IV) and gavage administration (PO) groups. The tail vein administration group collected 0.1 mL of blood from the orbital venous plexus before administration and 5 minutes, 15 minutes, 0.5 hours, 1 hour, 2 hours, 4 hours, 8 hours, 12 hours, and 24 hours after administration, and sample centrifugation at 4° C. for 5 minutes, and stored at −70° C. for testing. […] The plasma parent drug concentration was determined by LC-MS/MS.

hERG potassium channel, sequence (Q12809 whole entry): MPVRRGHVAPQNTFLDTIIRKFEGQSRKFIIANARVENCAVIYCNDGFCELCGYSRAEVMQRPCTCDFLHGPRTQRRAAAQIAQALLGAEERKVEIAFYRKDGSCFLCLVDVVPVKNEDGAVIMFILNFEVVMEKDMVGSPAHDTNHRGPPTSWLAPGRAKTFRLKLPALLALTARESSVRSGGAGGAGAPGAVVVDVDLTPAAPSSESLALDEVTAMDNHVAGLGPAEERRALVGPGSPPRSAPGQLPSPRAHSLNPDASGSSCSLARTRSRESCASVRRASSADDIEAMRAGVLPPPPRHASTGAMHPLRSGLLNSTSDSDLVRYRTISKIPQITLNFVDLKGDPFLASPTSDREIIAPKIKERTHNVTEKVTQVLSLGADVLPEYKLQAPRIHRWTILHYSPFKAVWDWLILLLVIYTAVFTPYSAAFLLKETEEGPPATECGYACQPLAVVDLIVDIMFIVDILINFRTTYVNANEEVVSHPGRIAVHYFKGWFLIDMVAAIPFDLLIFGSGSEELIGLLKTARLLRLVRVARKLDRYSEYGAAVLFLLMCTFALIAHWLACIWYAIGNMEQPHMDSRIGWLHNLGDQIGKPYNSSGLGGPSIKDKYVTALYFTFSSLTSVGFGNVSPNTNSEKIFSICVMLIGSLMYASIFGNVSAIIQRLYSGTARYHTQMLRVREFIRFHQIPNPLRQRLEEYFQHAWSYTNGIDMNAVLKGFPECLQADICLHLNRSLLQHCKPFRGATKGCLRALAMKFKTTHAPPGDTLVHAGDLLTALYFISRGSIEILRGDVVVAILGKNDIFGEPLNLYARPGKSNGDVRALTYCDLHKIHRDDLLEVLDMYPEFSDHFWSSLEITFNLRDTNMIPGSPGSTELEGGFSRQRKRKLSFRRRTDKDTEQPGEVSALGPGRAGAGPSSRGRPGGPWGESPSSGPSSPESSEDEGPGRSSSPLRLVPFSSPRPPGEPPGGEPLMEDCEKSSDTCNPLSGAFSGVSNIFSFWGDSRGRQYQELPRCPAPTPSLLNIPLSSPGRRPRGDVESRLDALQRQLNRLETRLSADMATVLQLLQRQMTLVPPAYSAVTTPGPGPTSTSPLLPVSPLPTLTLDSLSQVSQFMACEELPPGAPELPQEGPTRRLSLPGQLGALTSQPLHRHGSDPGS
T1 sequence (Q96P20 whole entry): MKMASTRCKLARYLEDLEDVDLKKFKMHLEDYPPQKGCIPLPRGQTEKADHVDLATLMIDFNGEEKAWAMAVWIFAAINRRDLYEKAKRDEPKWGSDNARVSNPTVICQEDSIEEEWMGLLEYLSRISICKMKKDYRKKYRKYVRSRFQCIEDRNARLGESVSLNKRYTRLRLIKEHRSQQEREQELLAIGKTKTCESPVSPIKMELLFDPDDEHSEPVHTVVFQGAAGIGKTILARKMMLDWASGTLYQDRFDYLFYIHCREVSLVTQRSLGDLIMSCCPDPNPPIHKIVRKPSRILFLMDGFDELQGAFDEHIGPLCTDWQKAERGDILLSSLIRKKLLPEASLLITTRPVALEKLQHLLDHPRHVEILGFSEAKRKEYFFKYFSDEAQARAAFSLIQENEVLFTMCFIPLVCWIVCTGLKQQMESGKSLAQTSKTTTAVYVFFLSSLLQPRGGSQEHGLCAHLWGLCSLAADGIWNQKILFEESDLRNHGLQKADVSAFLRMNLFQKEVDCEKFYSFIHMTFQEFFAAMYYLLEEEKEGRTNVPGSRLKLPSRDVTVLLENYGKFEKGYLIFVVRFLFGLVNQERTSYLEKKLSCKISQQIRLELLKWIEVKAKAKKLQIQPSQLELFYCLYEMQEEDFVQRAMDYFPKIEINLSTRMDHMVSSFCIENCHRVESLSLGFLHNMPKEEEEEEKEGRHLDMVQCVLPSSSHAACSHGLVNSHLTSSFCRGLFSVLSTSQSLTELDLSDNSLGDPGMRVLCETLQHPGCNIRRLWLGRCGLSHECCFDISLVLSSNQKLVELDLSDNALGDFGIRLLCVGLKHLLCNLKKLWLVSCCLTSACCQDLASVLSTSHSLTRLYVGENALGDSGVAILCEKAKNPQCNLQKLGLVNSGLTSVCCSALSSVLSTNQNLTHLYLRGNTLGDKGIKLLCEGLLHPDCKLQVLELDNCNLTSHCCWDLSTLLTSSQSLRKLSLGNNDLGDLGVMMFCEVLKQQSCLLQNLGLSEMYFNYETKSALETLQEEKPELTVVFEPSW

| IC50 (NLRP3) [nM] | F ([1]; PO, 20 mg/kg) [%] | AUC ([1]; IV, 3 mg/kg) [ng·h/mL] | clearance ([1]; IV, 3 mg/kg) [mL/min/kg] | half-life ([1]; IV, 3 mg/kg) [min] | Vd ([1]; IV, 3 mg/kg) [L/kg] | AUC ([1]; PO, 20 mg/kg) [ng·h/mL] | Cmax ([1]; PO, 20 mg/kg) [ng/mL] | half-life ([1]; PO, 20 mg/kg) [min] | Structure (SMILES) | IC50 (hERG potassium channel) [µM] |
| --- | --- | --- | --- | --- | --- | --- | --- | --- | --- | --- |
| 2.8 |  |  |  |  |  |  |  |  | C[C@]1(O)C[C@@H](Nc2nnc(-c3ccc(C(F)(F)F)cc3O)c3cnccc23)C1 [Embodiment 78] | > 30 |
| 6.6 |  |  |  |  |  |  |  |  | Cc1nc(N[C@@H]2CCCN(CC(C)(C)O)C2)nnc1-c1ccc(C(F)(F)F)cc1O [Embodiment 133] | > 30 |
| 5.1 |  |  |  |  |  |  |  |  | Oc1cc(C(F)(F)F)ccc1-c1nnc(N[C@@H]2CCCC[C@H]2O)c2c(F)cccc12 [Embodiment 135] | > 30 |
| 4.4 | 93.8 | 3250 | 15.1 | 364 | 2.35 | 20300 | 6520 | 340 | Oc1cc(C(F)(F)F)ccc1-c1nnc(N[C@@H]2CCCC[C@H]2O)c2cc(F)ccc12 [Embodiment 136] | > 30 |
| 9 | 78.7 | 3290 | 15.2 | 197 | 3.39 | 17200 | 5710 | 166 | Cc1nc(N[C@@H]2CCCN([C@@H](C)CO)C2)nnc1-c1ccc(C(F)(F)F)cc1O [Embodiment 147] | > 30 |
| 9.9 |  |  |  |  |  |  |  |  | Cc1nc(N[C@@H]2CCCN(C[C@@H](C)O)C2)nnc1-c1ccc(C(F)(F)F)cc1O [Embodiment 150] | > 30 |
| 2.4 |  |  |  |  |  |  |  |  | OCCN1CCC[C@@H](Nc2nnc(-c3ccc(Cl)cc3O)c3ccc(F)cc23)C1 [Embodiment 153] | > 30 |

Continued, compound first:

| Structure (SMILES) | IC50 (NLRP3) [nM] | F ([1]; PO, 20 mg/kg) [%] | AUC ([1]; IV, 3 mg/kg) [ng·h/mL] | clearance ([1]; IV, 3 mg/kg) [mL/min/kg] | half-life ([1]; IV, 3 mg/kg) [min] | Vd ([1]; IV, 3 mg/kg) [L/kg] | AUC ([1]; PO, 20 mg/kg) [ng·h/mL] | Cmax ([1]; PO, 20 mg/kg) [ng/mL] | half-life ([1]; PO, 20 mg/kg) [min] | IC50 (hERG potassium channel) [µM] |
| --- | --- | --- | --- | --- | --- | --- | --- | --- | --- | --- |
| Cc1nc(N[C@@H]2CCCN(CCO)C2)nnc1-c1ccc(C(F)(F)F)cc1O [Embodiment 44, (R)-2-(3-((1-(2-hydroxyethyl)piperidin-3-yl)amino)-5-methyl-1,2,4-triazin-6-yl)-5-(trifluoromethyl)phenol] | 0.4 | 95.3 | 2950 | 16.8 | 241 | 4.35 | 18800 | 4530 | 217 | > 30 |
| Oc1cc(C(F)(F)F)ccc1-c1nnc(N[C@@H]2CCCC[C@H]2O)c2ccccc12 [Embodiment 64] | 4.7 |  |  |  |  |  |  |  |  | > 30 |
| Oc1cc(C(F)(F)F)ccc1-c1nnc(N[C@@H]2CCCC[C@H]2O)c2ncccc12 [Embodiment 70, 2-(8-(((1R,2R)-2-hydroxycyclohexyl)amino)pyrido[2,3-d]pyridazin-5-yl)-5-(trifluoromethyl)phenol] | 5.3 |  |  |  |  |  |  |  |  | > 30 |
| CC(CO)N1CCC[C@@H](Nc2nnc(-c3ccc(C(F)(F)F)cc3O)c3ccncc23)C1 (some centres unmarked) [Embodiment 126] | 3.9 |  |  |  |  |  |  |  |  | > 30 |
| CC(CO)N1CCC[C@@H](Nc2nnc(-c3ccc(C(F)(F)F)cc3O)c3cnccc23)C1 (some centres unmarked) [Embodiment 127] | 3.5 |  |  |  |  |  |  |  |  | > 30 |
| CC(CO)N1CCC[C@@H](Nc2nnc(-c3ccc(C(F)(F)F)cc3O)c3ccoc23)C1 (some centres unmarked) [Embodiment 130] | 1.9 |  |  |  |  |  |  |  |  | > 30 |
| CC(CO)N1CCC[C@@H](Nc2nnc(-c3ccc(C(F)(F)F)cc3O)c3occc23)C1 (some centres unmarked) [Embodiment 131] | 7.3 |  |  |  |  |  |  |  |  | > 30 |
| Cc1nc(N[C@@H]2CCCN(C(C)(C)CO)C2)nnc1-c1ccc(C(F)(F)F)cc1O [Embodiment 132] | 4.1 | 88.5 | 3160 | 15.8 | 169 | 3.56 | 18600 | 3070 | 152 | > 30 |
| Oc1cc(C(F)(F)F)ccc1-c1nnc(N[C@@H]2CCCC[C@H]2O)c2ccc(F)cc12 [Embodiment 137] | 2 |  |  |  |  |  |  |  |  | > 30 |
| C[C@]1(O)C[C@@H](Nc2nnc(-c3ccc(C(F)(F)F)cc3O)c3ccc(F)cc23)C1 [Embodiment 139] | 1.9 |  |  |  |  |  |  |  |  | > 30 |
| Cc1nc(N[C@@H]2CCCN([C@H](C)CO)C2)nnc1-c1ccc(C(F)(F)F)cc1O [Embodiment 148] | 14.4 | 95.2 | 4750 | 10.5 | 250 | 3 | 30100 | 7730 | 221 | > 30 |
| Cc1nc(N[C@@H]2CCCN(CCO)C2)nnc1-c1ccc(Cl)cc1O [Embodiment 152] | 10.4 |  |  |  |  |  |  |  |  | > 30 |
| OCCN1CCC[C@@H](Nc2nnc(-c3ccc(Cl)cc3O)c3ccccc23)C1 [Embodiment 155] | 2.5 |  |  |  |  |  |  |  |  | > 30 |
